Source: BindingDB's records for doi:10.3109/14756366.2013.776556 (King Fahd University of Petroleum & Minerals, 2014)

Tests used:
[1] = molecular target: T1, 5-hydroxytryptamine receptor 1A (Homo sapiens, UniProt P08908); test: Binding Affinity Assay; settings: pH 7.4; 37 °C
T1 sequence (P08908 whole entry): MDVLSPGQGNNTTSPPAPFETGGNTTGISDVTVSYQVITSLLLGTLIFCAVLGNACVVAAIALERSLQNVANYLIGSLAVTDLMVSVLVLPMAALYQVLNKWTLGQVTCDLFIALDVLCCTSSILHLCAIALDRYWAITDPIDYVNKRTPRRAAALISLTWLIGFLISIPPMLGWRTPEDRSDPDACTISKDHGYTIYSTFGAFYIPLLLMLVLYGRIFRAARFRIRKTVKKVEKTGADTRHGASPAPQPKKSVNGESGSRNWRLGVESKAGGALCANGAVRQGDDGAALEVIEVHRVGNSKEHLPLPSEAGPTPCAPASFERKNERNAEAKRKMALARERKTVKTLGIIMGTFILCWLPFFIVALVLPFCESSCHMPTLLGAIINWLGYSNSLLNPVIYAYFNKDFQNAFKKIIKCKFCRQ
Experimental: Human-cloned 5-HT1A serotonin receptors stably expressed in HEK293-EBNA cells (Perkin-Elmer, Waltham, MA) were radiolabeled with 1.0nM [3H]-8-OH-DPAT [Fargin et al., J. Biol. Chem., 264:[…]]. Samples containing 32 μg of membrane protein, different concentrations of each compound ranging from 0.1nM to 10 μM were incubated in a final volume of 500 μL of 50mM Tris-HCl pH 7.4, 5mM MgSO4for 120 min at 37 °C. After this incubation time, samples were filtered through Whatman GF/C glass microfiber filters presoaked in polyethylenimine 0.5% for at least 30 min prior to use. The filters were washed twice with 1mL of ice-cold buffer (50mM Tris-HCl, pH 7.4). Nonspecific binding was determined in the presence of 10 μM 5-HT. The radioactivity bound to the filters was measured by liquid scintillation using the LS6500 Multi-Purpose scintillation Counter, Beckman.

[2] = molecular target: D(2) dopamine receptor (Homo sapiens, UniProt P14416); test: Binding Affinity Assay; settings: pH 7.4; 25 °C
Sequence of D(2) dopamine receptor (P14416 whole entry): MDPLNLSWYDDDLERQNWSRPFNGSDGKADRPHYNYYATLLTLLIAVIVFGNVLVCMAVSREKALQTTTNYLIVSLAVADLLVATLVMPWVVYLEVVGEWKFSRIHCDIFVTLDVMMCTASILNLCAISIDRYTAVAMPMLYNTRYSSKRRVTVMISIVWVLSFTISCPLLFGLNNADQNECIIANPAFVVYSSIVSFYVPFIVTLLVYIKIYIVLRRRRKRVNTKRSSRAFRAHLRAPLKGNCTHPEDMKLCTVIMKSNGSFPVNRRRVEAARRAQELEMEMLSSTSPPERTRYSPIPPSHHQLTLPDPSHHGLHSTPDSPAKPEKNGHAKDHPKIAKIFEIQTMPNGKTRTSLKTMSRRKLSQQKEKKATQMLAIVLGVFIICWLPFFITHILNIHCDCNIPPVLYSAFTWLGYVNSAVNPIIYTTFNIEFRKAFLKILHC
Experimental: The samples were incubated for 120 min at 25 °C, then the incubation was stopped by rapid filtration through Whatman GF/C glass fiber filters (presoaked in 0.5% polyethylenimine for 60 min). The filters were washed three times in 1mL of ice-cold 50mM Tris, 0.9% NaCl, pH 7.4. Nonspecific binding was determined in the presence of 10 μM haloperidol. The radioactivity bound to the filters was measured by liquid scintillation using a LS6500 Multi-Purpose scintillation Counter, Beckman.

SMILES | Ki [1] | Ki [2]
O=c1[nH]c2cccc(N3CCN(Cc4cccc(-c5ccccc5)c4)CC3)c2o1 | 7.19 nM | 
Fc1ccc(-c2cncc(CN3CCN(c4cccc5c4OCCO5)CC3)c2)cc1 [1-(2,3-dihydro-1,4-benzodioxin-5-yl)-4-[[5-(4-fluorophenyl)pyridin-3-yl]methyl]piperazine] | 8.64 nM | 8.4 nM
O=c1[nH]c2ccc(C3CCN(Cc4cccc(C5=CCCC5)c4)CC3)cc2[nH]1 [5-(1-(3-cyclopentenylbenzyl)piperidin-4-yl)-1H-benzo[d]imidazol-2(3H)-one (5e)] | 1.2 nM | 8.12 nM
O=c1[nH]c2ccc(C3CCN(Cc4ccc(-c5ccc(F)cc5)cc4)CC3)cc2[nH]1 [5-(1-((4'-Fluorobiphenyl-4-yl)methyl)piperidin-4-yl)-1H-benzo[d]imidazol-2(3H)-one (5b)] | 16.2 nM | 34.4 nM
O=c1[nH]c2ccc(C3CCN(Cc4cncc(-c5ccc(F)cc5)c4)CC3)cc2[nH]1 [5-(1-((5-(4-Fluorophenyl)pyridin-3-yl)methyl)piperidin-4-yl)-1H-benzo[d]imidazol-2(3H)-one (5d)] | 9.42 nM | 24.6 nM
O=c1[nH]c2ccc(C3CCN(Cc4cncc(C5=CCCC5)c4)CC3)cc2[nH]1 [5-(1-((5-cyclopentenylpyridin-3-yl)methyl)piperidin-4-yl)-1Hbenzo[d]imidazol-2(3H)-one (5f)] | 6.3 nM | 4.26 nM
O=c1[nH]c2ccc(C3CCN(Cc4cncc(-c5ccccc5)c4)CC3)cc2[nH]1 [5-(1-((5-phenylpyridin-3-yl)methyl)piperidin-4-yl)-1H-benzo[d]imidazol-2(3H)-one (5c)] | 6.72 nM | 18.5 nM
O=c1[nH]c2ccc(N3CCN(Cc4cccc(C5=CCCC5)c4)CC3)cc2[nH]1 [5-(4-(3-cyclopentenylbenzyl)piperazin-1-yl)-1H-benzo[d]imidazol-2(3H)-one (6e)] | 3.1 nM | 10.4 nM
O=c1[nH]c2ccc(N3CCN(Cc4cncc(C5=CCCC5)c4)CC3)cc2[nH]1 [5-(4-((5-cyclopentenylpyridin-3-yl)methyl)piperazin-1-yl)-1H-benzo[d]imidazol-2(3H)-one (6f)] | 1.7 nM | 3.1 nM

Next, values leading:

Ki [1] | Ki [2] | SMILES
34.2 nM | 96.2 nM | O=c1[nH]c2ccc(C3CCN(Cc4ccc(-c5ccccc5)cc4)CC3)cc2[nH]1 [5-(1-(biphenyl-4-ylmethyl)piperidin-4-yl)-1H-benzo[d]imidazol-2(3H)-one (5a)]
27.2 nM | 62.6 nM | O=c1[nH]c2ccc(N3CCN(Cc4ccc(-c5ccc(F)cc5)cc4)CC3)cc2[nH]1 [5-(4-((4'-fluorobiphenyl-4-yl)methyl)piperazin-1-yl)-1H-benzo[d]imidazol-2(3H)-one (6b)]
11.4 nM | 82 nM | O=c1[nH]c2ccc(N3CCN(Cc4cncc(-c5ccc(F)cc5)c4)CC3)cc2[nH]1 [5-(4-((5-(4-fluorophenyl)pyridin-3-yl)methyl)piperazin-1-yl)-1H-benzo[d]imidazol-2(3H)-one (6d)]
5.3 nM | 12.6 nM | O=c1[nH]c2ccc(N3CCN(Cc4cncc(-c5ccccc5)c4)CC3)cc2[nH]1 [5-(4-((5-phenylpyridin-3-yl)methyl)piperazin-1-yl)-1H-benzo[d]imidazol-2(3H)-one (6c)]
46.3 nM | 42.2 nM | O=c1[nH]c2ccc(N3CCN(Cc4ccc(-c5ccccc5)cc4)CC3)cc2[nH]1 [5-(4-(biphenyl-4-ylmethyl)piperazin-1-yl)-1H-benzo[d]imidazol-2(3H)-one (6a)]
